Test results as given in ChEMBL document CHEMBL1201862, “PubChem BioAssay data set” (2004).
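Results reflect a 48-hour exposure of cells in 96-well plates to compound at five concentrations. GI50 marks 50% less growth.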 Active and inactive are the calls of the source. Cut-off read from the data, not from the text of the source: active = GI50 up to about 1.1 µM and inactive = higher.

Key:
Test in all cases: growth of human tumour cells (NCI), 48 h
786-0 = system: 786-0
A549 = system: A549
ACHN = system: ACHN
CAKI-1 = system: CAKI-1
CCRF-CEM = system: CCRF-CEM
COLO 205 = system: COLO 205
DLD-1 = system: DLD-1
DMS-114 = system: DMS-114
DMS-273 = system: DMS-273
EKVX = system: EKVX
HCC 2998 = system: HCC 2998
HCT-116 = system: HCT-116
HCT-15 = system: HCT-15
HL-60 = system: HL-60
HOP-18 = system: HOP-18
HOP-62 = system: HOP-62
HT-29 = system: HT-29
K562 = system: K562
KM12 = system: KM12
LOX IMVI = system: LOX IMVI
M14 = system: M14
M19-MEL = system: M19-MEL
MOLT-4 = system: MOLT-4
Malme-3M = system: Malme-3M
NCI-H226 = system: NCI-H226
NCI-H23 = system: NCI-H23
NCI-H460 = system: NCI-H460
NCI-H522 = system: NCI-H522
OVCAR-3 = system: OVCAR-3
OVCAR-4 = system: OVCAR-4
OVCAR-5 = system: OVCAR-5
OVCAR-8 = system: OVCAR-8
RPMI-8226 = system: RPMI-8226
SF-268 = system: SF-268
SF-295 = system: SF-295
SF-539 = system: SF-539
SK-MEL-28 = system: SK-MEL-28
SK-MEL-2 = system: SK-MEL-2
SK-MEL-5 = system: SK-MEL-5
SN12C = system: SN12C
SNB-19 = system: SNB-19
SNB-75 = system: SNB-75
SNB-78 = system: SNB-78
SR = system: SR
SW-620 = system: SW-620
TK-10 = system: TK-10
UACC-257 = system: UACC-257
UO-31 = system: UO-31
XF498 = system: XF498
A498 = system: A498
IGROV-1 = system: IGROV-1
KM-20L2 = system: KM-20L2
LXFL 529 = system: LXFL 529
RXF 393 = system: RXF 393
SK-OV-3 = system: SK-OV-3
UACC-62 = system: UACC-62

SMILES: COc1cc(/C=C2\C(=O)N(C(=O)Cc3ccccc3)N=C2C)cc(OC)c1OC
- GI50 (786-0): > 100 µM (inactive)
- GI50 (A549): > 100 µM (inactive)
- GI50 (ACHN): > 100 µM (inactive)
- GI50 (CAKI-1): > 100 µM (inactive)
- GI50 (CCRF-CEM): > 100 µM (inactive)
- GI50 (COLO 205): > 100 µM (inactive)
- GI50 (DLD-1): > 100 µM (inactive)
- GI50 (DMS-114): > 100 µM (inactive)
- GI50 (DMS-273): > 100 µM (inactive)
- GI50 (EKVX): > 100 µM (inactive)
- GI50 (HCC 2998): > 100 µM (inactive)
- GI50 (HCT-116): > 100 µM (inactive)
- GI50 (HCT-15): > 100 µM
- GI50 (HL-60): > 100 µM (inactive)
- GI50 (HOP-18): > 100 µM (inactive)
- GI50 (HOP-62): > 100 µM (inactive)
- GI50 (HT-29): > 100 µM (inactive)
- GI50 (K562): > 100 µM (inactive)
- GI50 (KM12): > 100 µM (inactive)
- GI50 (LOX IMVI): > 100 µM (inactive)
- GI50 (M14): > 100 µM (inactive)
- GI50 (M19-MEL): > 100 µM (inactive)
- GI50 (MOLT-4): > 100 µM (inactive)
- GI50 (Malme-3M): > 100 µM (inactive)
- GI50 (NCI-H226): > 100 µM (inactive)
- GI50 (NCI-H23): > 100 µM (inactive)
- GI50 (NCI-H460): > 100 µM (inactive)
- GI50 (NCI-H522): > 100 µM (inactive)
- GI50 (OVCAR-3): > 100 µM (inactive)
- GI50 (OVCAR-4): > 100 µM (inactive)
- GI50 (OVCAR-5): > 100 µM (inactive)
- GI50 (OVCAR-8): > 100 µM (inactive)
- GI50 (RPMI-8226): > 100 µM (inactive)
- GI50 (SF-268): > 100 µM (inactive)
- GI50 (SF-295): > 100 µM (inactive)
- GI50 (SF-539): > 100 µM (inactive)
- GI50 (SK-MEL-28): > 100 µM (inactive)
- GI50 (SK-MEL-2): > 100 µM (inactive)
- GI50 (SK-MEL-5): > 100 µM (inactive)
- GI50 (SN12C): > 100 µM (inactive)
- GI50 (SNB-19): > 100 µM (inactive)
- GI50 (SNB-75): > 100 µM (inactive)
- GI50 (SNB-78): > 100 µM (inactive)
- GI50 (SR): > 100 µM (inactive)
- GI50 (SW-620): > 100 µM (inactive)
- GI50 (TK-10): > 100 µM (inactive)
- GI50 (UACC-257): > 100 µM (inactive)
- GI50 (UO-31): > 100 µM (inactive)
- GI50 (XF498): > 100 µM (inactive)

SMILES: CC1(C)OB(O)OC1(C)C
- GI50 (786-0): > 100 µM (inactive)
- GI50 (A498): > 100 µM (inactive)
- GI50 (A549): > 100 µM (inactive)
- GI50 (ACHN): > 100 µM (inactive)
- GI50 (CAKI-1): > 100 µM (inactive)
- GI50 (CCRF-CEM): > 100 µM (inactive)
- GI50 (COLO 205): > 100 µM (inactive)
- GI50 (DLD-1): > 100 µM (inactive)
- GI50 (DMS-114): > 100 µM (inactive)
- GI50 (DMS-273): > 100 µM (inactive)
- GI50 (EKVX): > 100 µM (inactive)
- GI50 (HCC 2998): > 100 µM (inactive)
- GI50 (HCT-116): > 100 µM (inactive)
- GI50 (HCT-15): > 100 µM
- GI50 (HL-60): > 100 µM (inactive)
- GI50 (HOP-18): > 100 µM (inactive)
- GI50 (HOP-62): > 100 µM (inactive)
- GI50 (HT-29): > 100 µM (inactive)
- GI50 (IGROV-1): > 100 µM (inactive)
- GI50 (K562): > 100 µM (inactive)
- GI50 (KM-20L2): > 100 µM (inactive)
- GI50 (KM12): > 100 µM (inactive)
- GI50 (LOX IMVI): > 100 µM (inactive)
- GI50 (LXFL 529): > 100 µM (inactive)
- GI50 (M14): > 100 µM (inactive)
- GI50 (MOLT-4): > 100 µM (inactive)
- GI50 (Malme-3M): > 100 µM (inactive)
- GI50 (NCI-H226): > 100 µM (inactive)
- GI50 (NCI-H23): > 100 µM (inactive)
- GI50 (NCI-H460): > 100 µM (inactive)
- GI50 (NCI-H522): > 100 µM (inactive)
- GI50 (OVCAR-3): > 100 µM (inactive)
- GI50 (OVCAR-4): > 100 µM (inactive)
- GI50 (OVCAR-5): > 100 µM (inactive)
- GI50 (OVCAR-8): > 100 µM (inactive)
- GI50 (RPMI-8226): > 100 µM (inactive)
- GI50 (RXF 393): > 100 µM (inactive)
- GI50 (SF-268): > 100 µM (inactive)
- GI50 (SF-295): > 100 µM (inactive)
- GI50 (SF-539): > 100 µM (inactive)
- GI50 (SK-MEL-28): > 100 µM (inactive)
- GI50 (SK-MEL-2): > 100 µM (inactive)
- GI50 (SK-MEL-5): > 100 µM (inactive)
- GI50 (SK-OV-3): > 100 µM (inactive)
- GI50 (SN12C): > 100 µM (inactive)
- GI50 (SNB-19): > 100 µM (inactive)
- GI50 (SNB-75): > 100 µM (inactive)
- GI50 (SNB-78): > 100 µM (inactive)
- GI50 (SW-620): > 100 µM (inactive)
- GI50 (TK-10): > 100 µM (inactive)
- GI50 (UACC-257): > 100 µM (inactive)
- GI50 (UACC-62): > 100 µM (inactive)
- GI50 (UO-31): > 100 µM (inactive)
- GI50 (XF498): > 100 µM (inactive)
